We go through two compounds from publication PMC5352699, “Synthesis and in vitro antitumor activity of (1E,4E)-1-aryl-5-(2-((quinazolin-4-yl)oxy)phenyl)-1,4-pentadien-3-one derivatives” (Chemistry Central Journal, 2017).

Test [1] concerns human gastric cancer cell line MGC-803. Briefly: MTT assay, MGC-803 cells. The test is classed as cell-based. As to the method: (§1) The in vitro antitumor activity of the newly synthesized compounds 5a–5n were evaluated against a panel of three human cancer cell lines, including human gastric cancer cell line MGC-803, human prostate cancer cell line PC3, and human breast cancer cell line Bcap-37, and one normal cell line NIH3T3 (mouse embryo fibroblast cell line) by MTT method. Adriamycin (ADM) was chosen as a reference drug due to its availability and widespread use. Each experiment was repeated at least three times.
(§2) Human gastric cancer cell line MGC-803, human prostate cancer cell line PC3, and human breast cancer cell line Bcap-37 and one normal cell line NIH3T3 were obtained from Cell Bank of Type Culture Collection of Chinese Academy of Sciences (Shanghai, China). NIH3T3 was routinely maintained in a DMEM medium, while all the other cell lines were cultured in a 1640 medium. All the cells were grown in the medium supplemented with 10% FBS at 37 °C with 5% CO2.
(§3) The growth-inhibitory effects of the test compounds were determined on MGC-803, PC3, Bcap-37, and NIH3T3 cells. All cell types were seeded into 96-well plates at a density of 2 × 10^3 cells/well 100 μL of the proper culture medium and incubated with increasing concentrations of the compounds at 37 °C under cell culturing conditions. An MTT assay (Roche Molecular Biochemicals, 1465-007) was performed 72 h later according to the instructions provided by Roche. The precipitated formazan crystals were dissolved in SDS, and the absorbance was read at 595 nm with a microplate reader (BIO-RAD, model 680), which is directly proportional to the number of living cells in culture. The experiment was performed in triplicate. The percentage cytotoxicity was calculated using the formula. %Cytotoxicity=Controlabs-Blankabs-Testabs-Blankabs/Controlabs-Blankabs×100
(Tetrazolium assays rely on reduction of a dye to a coloured formazan, in cell work by metabolically active cells.)

The test system of test [2] is human prostate cancer cell line PC3. The test can be described thus: MTT assay, PC3 cells. Format: cell-based. As to the method: as §1, §2, §3
In test [3] the test system is human breast cancer cell line Bcap-37. Briefly: MTT assay, Bcap-37 cells. The test is classed as cell-based. As to the method: as §1, §2, §3
Test [4] deals with normal cell line NIH3T3 (mouse embryo fibroblast cell line). The test can be described thus: MTT assay, NIH3T3 normal cells. Format: cell-based. The note with it: 72 h, read-out: Inhibition rates against different cells (%) NIH3T3. As to the method: as §1, §2, §3
Test [5] relates to MGC-803 cells. The test can be described thus: AO/EB staining for apoptosis. Format: cell-based, human. Particulars: 12 h, 5f at 1, 5, 10 μM, HCPT at 10 μM. As to the method: It is well known that AO can pass through cell membranes, but EB cannot. Under the fluorescence microscope, living cells appear green. Necrotic cells stain red but have a nuclear morphology resembling that of viable cells. Apoptotic cells appear green, and morphological changes such as cell blebbing and formation of apoptotic bodies will be observed.
Representative images of the cells treated with 10 μM of HCPT (used as positive control) and 1, 5, 10 μM of compound 5f for 12 h are shown in Fig. 2a.
Cells were seeded in 6-well culture plates at a density of 5 × 10^4 cells/mL in 0.6 mL of medium and allowed to adhere to the plates overnight. The cells were incubated with different concentrations of compounds or vehicle solution (0.1% DMSO) in a medium containing 10% FBS for 12 h. After the treatment, the cover slip with monolayer cells was inverted on the glass slide with 20 μL of AO/EB stain (100 μg/mL), and finally analyzed for morphological characteristics of cell apoptosis under a fluorescence microscope (Olympus Co., Japan).

In test [6] the test system is MGC-803 cells. The test can be described thus: Hoechst 33,258 staining for apoptosis. Particulars: MGC-803 cells, 1, 5, and 10 μM, 12 h. Format: cell-based, human. As to the method: Membrane-permeable Hoechst 33,258 was a blue fluorescent dye and stained the cell nucleus. […] MGC-803 cells treated with compound 5f at concentrations of 1, 5, and 10 μM for 12 h were stained with Hoechst 33,258, with HCPT as positive control at 10 μM for 12 h. The results are illustrated in Fig. 2b.
Cells were seeded in 6-well culture plates at a density of 5 × 10^4 cells/mL in 0.6 mL of medium and allowed to adhere to the plates overnight. The cells were incubated with different concentrations of compounds or vehicle solution (0.1% DMSO) in a medium containing 10% FBS for 12 h. After the treatment, the cells were fixed with 4% paraformaldehyde for 10 min, followed by incubation with Hoechst 33,258 staining solution (Beyotime) for 5 min and finally analyzed for morphological characteristics of cell apoptosis under a fluorescence microscope (Olympus Co., Japan).

The subject of test [7] is MGC-803 cells. Briefly: TUNEL assay. Format: cell-based, human. The note with it: 5 μM, 5f 6, 12, and 18 h, HCPT 18 h. As to the method:
To further verify AO/EB and Hoechst 33,258 staining results, TUNEL assay was also carried out. TUNEL (Terminal deoxynucleotidyl Transferase Biotin-dUTP Nick End Labeling) is a very popular assay for identifying apoptotic cells. The assay identifies apoptotic cells in situ by using terminal deoxynucleotidyl transferase (TdT) to transfer biotin-dUTP to these strand breaks of cleaved DNA. The biotin-labeled cleavage sites are then detected by reaction with HRP conjugated streptavidin and visualized by DAB showing brown color [24]. MGC-803 cells treated with compound 5f at 5 μM for 6, 12, and 18 h were stained with TUNEL, with HCPT as positive control at 5 μM for 18 h. […] We further concluded that compound 5f induced apoptosis against MGC-803.

In test [8] the test system is MGC-803 cells. The test can be described thus: Flow cytometry, Annexin V/PI double staining. The note with it: for apoptosis ratio: MGC-803 cells, 10 μM, 24 h. Format: cell-based, human. As to the method:
In addition, the apoptosis ratios induced by compound 5f in MGC-803 cells were determined by flow cytometry, using Annexin V/PI double staining. Flow cytometry was performed on the total cell population (including both adherent and detached cells) and apoptosis detection was carried out as mentioned above. This double staining procedure discriminated necrotic cells (Q1, Annexin^−/PI^+), late apoptotic cells (Q2, Annexin^+/PI^+), intact cells (Q3, Annexin^−/PI^−) and early apoptotic cells (Q4, Annexin^+/PI^−). […] For the positive control HCPT, the apoptosis ratio was only 22.3% after 24 h of treatment at a concentration of 10 μM.
To further quantitative analysis of apoptosis, the cells were washed with PBS, stained with annexinV-FITC and propidium iodide (PI) using the AnnexinV-FITC kit (KeyGEN BioTECH). The cells were then subjected to flow cytometry according to manufacturer’s instructions and the stained cells were analyzed by FACS can flow cytometer (Becton–Dickinson, CA, USA).
In general terms: Flow cytometry measures light scatter and fluorescence of single cells or particles in a stream.

As for `Cc1ccc2ncnc(Oc3ccccc3/C=C/C(=O)/C=C/c3c(Cl)cccc3Cl)c2c1` [Compound 5f, (1E,4E)-1-(2,6-dichlorophenyl)-5-(2-((6-methylquinazolin-4-yl)oxy)phenyl)penta-1,4-dien-3-one], the inhibition – broadly, the drop in the measured response relative to a control, in per cent – at 10 µM in test [1] (10 μM, 72 h, read-out: Inhibition rates against different cells (%) MGC-803) came out at 90.7 ± 0.6%; in test [2] (PC-3, 10 μM, 72 h, read-out: Inhibition rates against different cells (%) PC3) it was 93 ± 1.8%; in test [3] (Bcap37, 10 μM, 72 h, read-out: Inhibition rates against different cells (%) Bcap-37) it was 76.5 ± 1.9%; in test [4], 21.5 ± 2.7%. The 50% inhibitory concentration (IC50) (usually the concentration needed to halve the response being measured) in test [1] (72 h after treatment) was found to be 0.85 ± 0.43 µM; in test [2] (PC-3, 72 h after treatment), 1.37 ± 0.22 µM; in test [3] (Bcap37, 72 h after treatment) it was 4.98 ± 0.39 µM. The “AO/EB staining, apoptotic morphology” value with MGC-803 cells [5] is on record as “apoptotic cells with typical apoptotic features”. Also, the “Hoechst 33,258 staining, apoptotic morphology” value in the test with MGC-803 cells [6] was “exhibited strong blue fluorescence and revealed typical apoptotic morphology”. In addition, the TUNEL staining result in the test with MGC-803 cells [7] was “appeared as brown precipitate”. Besides, the “apoptosis of MGC-803 cells over time” value in the test on MGC-803 cells [8] (10 μM for 6, 12, and 24 h) is “gradually increased in a time-dependent manner”. Besides, the apoptosis ratio in the test with MGC-803 cells [8] is listed as 26.4%.
As for `CC[C@@]1(O)C(=O)OCc2c1cc1n(c2=O)Cc2cc3cc(O)ccc3nc2-1` [HCPT, 10-hydroxyl camptothecine, reference compound], the “AO/EB staining, apoptotic morphology” value in the test with MGC-803 cells [5] is “apoptotic cells with typical apoptotic features”. Further, the TUNEL staining entry in the test on MGC-803 cells [7] was “appeared as brown precipitate”. The apoptosis ratio in the test on MGC-803 cells [8] amounted to 22.3%.
